Measurements: EPA's ToxRefDB 2

How the values were obtained:
[1] = system: rat; conditions: Sub-acute repeat dose toxicity, Oral, Gavage/Intubation, dose end: 14 day, group: systemic
[2] = system: dog; conditions: Subchronic oral toxicity in nonrodent, beagle, Gavage/Intubation, dose end: 93 day
[3] = system: rat; conditions: Subchronic oral toxicity in rodents, sprague dawley, Gavage/Intubation, dose end: 91 day, group: systemic
[4] = system: rat; conditions: Sub-acute repeat dose toxicity, Oral, Gavage/Intubation, dose end: 5 day, group: systemic
[5] = system: rat; conditions: Sub-acute repeat dose toxicity, Oral, Gavage/Intubation, dose end: 12 day, group: systemic
[6] = system: rat; conditions: Sub-acute repeat dose toxicity; Oral; Gavage/Intubation; dose end: 5 day; group: systemic; systemic / in life observation / food consumption / food consumption
[7] = system: rat; conditions: Sub-acute repeat dose toxicity, Oral, Gavage/Intubation, dose end: 8 day, group: systemic
[8] = system: rat; conditions: Sub-acute repeat dose toxicity; Oral; Gavage/Intubation; dose end: 4 day; group: systemic; systemic / clinical chemistry / [other] / [other] + systemic / clinical chemistry / 5' nucleotidase / 5' nucleotidase + systemic / clinical …
[9] = system: rat; conditions: Combined chronic toxicity/carcinogenicity; wistar; Oral; Feed; dose end: 24 month; group: systemic; systemic / organ weight / spleen / absolute + systemic / organ weight / spleen / relative to body weight + systemic / pathology microscopic…
[10] = system: rat; conditions: Multigenerational reproductive toxicity study, sprague dawley, Oral, Feed, dose end: 2 generation
[11] = system: mouse; conditions: Carcinogenicity; other; Oral; Feed; dose end: 24 month; group: systemic; systemic / hematology / anemia / anemia - nos + systemic / organ weight / liver / absolute + systemic / organ weight / liver / relative to …
[12] = system: rat; conditions: Subchronic oral toxicity in rodents, other, Feed, dose end: 6 month, group: systemic
[13] = systemic / clinical chemistry / 5' nucleotidase / 5' nucleotidase + systemic / clinical chemistry / glucose / glucose + systemic / clinical …
[14] = systemic / clinical chemistry / potassium / potassium
[15] = group: maternal, reproductive / reproductive performance / estrous cycle / absent corpora lutea
[16] = group: systemic, systemic / organ weight / testes / absolute + systemic / pathology microscopic / testes / degeneration
[17] = group: systemic, systemic / organ weight / testes / absolute + systemic / pathology microscopic / testes / degeneration + systemic / in life observation / …
[18] = systemic / in life observation / clinical signs / abnormal feces + systemic / in life observation / clinical signs / fur (altered appearance…
[19] = systemic / in life observation / mortality / mortality + systemic / organ weight / testes / absolute + systemic / pathology microscopic / …
[20] = systemic / clinical chemistry / albumin / albumin + systemic / clinical chemistry / globulins / globulins + systemic / clinical chemistry / …
[21] = systemic / hematology / neutrophils / neutrophils + systemic / pathology microscopic / mesentery / inflammation + systemic / pathology …
[22] = systemic / hematology / neutrophils / neutrophils + systemic / pathology microscopic / intestine small / inflammation + systemic / pathology…
[23] = systemic / hematology / neutrophils / neutrophils
[24] = group: offspring, systemic / in life observation / body weight / offspring (pup) weight
[25] = group: parental, systemic / in life observation / body weight / body weight + systemic / in life observation / body weight / body weight gain + systemic / in…
[26] = systemic / pathology gross / urinary bladder / lesion(s) (nos) + systemic / pathology microscopic / blood vessel / [other] + systemic / …

Q: How did the LOAEL [1, 13] turn out when `CCc1nn(C2CCCCC2)c2cc(C3(C#N)CCC(C(=O)O)CC3)ccc12` (stereo unspecified) was run?
A: > 60 mg/kg/day

Q: And the NOAEL [1, 13]?
A: ≥ 60 mg/kg/day

Q: And the LEL [1, 14]?
A: 3 mg/kg/day

Q: And the NEL [1, 14]?
A: < 3 mg/kg/day

Q: What about the LEL [2, 15] of the same molecule?
A: 1 mg/kg/day

Q: And the LOAEL [2, 15]?
A: > 10 mg/kg/day

Q: And the NEL [2, 15]?
A: < 1 mg/kg/day

Q: What about the NOAEL [2, 15] of the same molecule?
A: ≥ 10 mg/kg/day

Q: What about the LEL [2, 16] of the same molecule?
A: 1 mg/kg/day

Q: What about the NEL [2, 16] of the same molecule?
A: < 1 mg/kg/day

Q: And the LOAEL [2, 17]?
A: > 10 mg/kg/day

Q: And the NOAEL [2, 17]?
A: ≥ 10 mg/kg/day

Q: What about the LEL [3, 18] of the same molecule?
A: 1 mg/kg/day

Q: What about the NEL [3, 18] of the same molecule?
A: < 1 mg/kg/day

Q: What about the LOAEL [3, 19] of the same molecule?
A: > 15 mg/kg/day

Q: And the NOAEL [3, 19]?
A: ≥ 15 mg/kg/day

Q: And the LOAEL [4, 20]?
A: > 30 mg/kg/day

Q: What about the NOAEL [4, 20] of the same molecule?
A: ≥ 30 mg/kg/day

Q: What about the LEL [4, 21] of the same molecule?
A: 15 mg/kg/day

Q: And the NEL [4, 21]?
A: < 15 mg/kg/day

Q: What about the LOAEL [5, 20] of the same molecule?
A: > 30 mg/kg/day

Q: And the NOAEL [5, 20]?
A: ≥ 30 mg/kg/day

Q: And the LEL [5, 22]?
A: 15 mg/kg/day

Q: And the NEL [5, 22]?
A: < 15 mg/kg/day

Q: What about the LEL [6] of the same molecule?
A: 1 mg/kg/day

Q: What about the LOAEL [6] of the same molecule?
A: > 10 mg/kg/day

Q: And the NEL [6]?
A: < 1 mg/kg/day

Q: And the NOAEL [6]?
A: ≥ 10 mg/kg/day

Q: What about the LOAEL [7, 20] of the same molecule?
A: > 30 mg/kg/day

Q: And the NOAEL [7, 20]?
A: ≥ 30 mg/kg/day

Q: What about the LEL [7, 23] of the same molecule?
A: 15 mg/kg/day

Q: And the NEL [7, 23]?
A: < 15 mg/kg/day

Q: What about the LEL [8] of the same molecule?
A: 30 mg/kg/day

Q: And the LOAEL [8]?
A: > 30 mg/kg/day

Q: What about the NEL [8] of the same molecule?
A: < 30 mg/kg/day

Q: And the NOAEL [8]?
A: ≥ 30 mg/kg/day

Q: `CN(C)C(=O)Nc1ccc(Cl)c(Cl)c1` [Diuron] was tested. Which LEL [9] did it give?
A: 1 mg/kg/day

Q: What about the LOAEL [9] of the same molecule?
A: 1 mg/kg/day

Q: And the NEL [9]?
A: < 1 mg/kg/day

Q: What about the NOAEL [9] of the same molecule?
A: < 1 mg/kg/day

Q: What about the LEL [10, 24] of the same molecule?
A: 139 mg/kg/day

Q: What about the LOAEL [10, 24] of the same molecule?
A: 139 mg/kg/day

Q: And the NEL [10, 24]?
A: 18.9 mg/kg/day

Q: What about the NOAEL [10, 24] of the same molecule?
A: 18.9 mg/kg/day

Q: And the LEL [10, 25]?
A: 101 mg/kg/day

Q: What about the LOAEL [10, 25] of the same molecule?
A: 101 mg/kg/day

Q: What about the NEL [10, 25] of the same molecule?
A: 14.8 mg/kg/day

Q: And the NOAEL [10, 25]?
A: 14.8 mg/kg/day

Q: What about the LEL [11] of the same molecule?
A: 640 mg/kg/day

Q: And the LOAEL [11]?
A: 640 mg/kg/day

Q: And the NEL [11]?
A: 50.8 mg/kg/day

Q: And the NOAEL [11]?
A: 50.8 mg/kg/day

Q: And the LEL [12, 26]?
A: 0.3 mg/kg/day

Q: What about the NEL [12, 26] of the same molecule?
A: < 0.3 mg/kg/day

Q: And the NOAEL [12, 26]?
A: 0.7 mg/kg/day

Q: And the LOAEL ([12]; systemic / pathology microscopic / spleen / pigmentation)?
A: 1.6 mg/kg/day
